Tests used:
NIH 3T3 cells [1] = experiment: clonogenic assays for drug resistance of NIH 3T3 cells transduced with MDR1 constructs; type: cell-based; details: for doxorubicin resistance relative to the LMDR1-G185V construct: FIG. 5B, 6B; for taxol resistance relative to the LMDR1-G185V construct: FIG. 6E; for vinblastine resistance relative to the LMDR1-G185V construct: FIG. 6D; for etoposide resistance relative to the LMDR1-G185V construct / fold increase in etoposide resistance relative to the LMDR1-G185V construct: FIG. 5A; for etoposide resistance relative to the LMDR1-G185V construct: 6A; for colchicine resistance relative to the LMDR1-G185V construct: FIG. 5C, 6C; for fold increase in doxorubicin resistance relative to the LMDR1-G185V construct: transduced NIH 3T3 cells, Table II; for fold increase in etoposide resistance relative to the LMDR1-G185V construct: transduced NIH 3T3 cells sorted for similar P-glycoprotein levels; for colchicine resistance relative to cells transduced with wild-type MDR1: FIG. 4B; for doxorubicin resistance relative to cells transduced with wild-type MDR1: FIG. 4C; for etoposide resistance relative to cells transduced with wild-type MDR1: FIG. 4A; for taxol resistance relative to cells transduced with wild-type MDR1: FIG. 4E; for vinblastine resistance relative to cells transduced with wild-type MDR1: FIG. 4D
From the text: FIGS. 4A through 4E illustrate the results of clonogenic assays for resistance to etoposide (panel A), colchicine (panel B), doxorubicin (panel C), vinblastine (panel D), and taxol (panel E) for NIH 3T3 cells transduced with LXSN (closed squares), wild-type MDR1 (closed circles), MDR1-G185V (open circles), MDR1-I186N (closed triangles), or MDR1-G185V/I186N (open triangles);
FIGS. 5A through 5C illustrate the results of clonogenic assays for resistance to etoposide (panel A), doxorubicin (panel B), and colchicine (panel C) for NIH 3T3 cells transduced with LMDR1-G185V (open circles), LMDR1-G185V-EK2 (closed triangles), LMDR1-G185V-EK3 (open triangles), or LMDR1-G185V-EK5 (closed diamonds);
FIGS. 6A through 6E illustrate the results of clonogenic assays for resistance to etoposide (panel A), doxorubicin (panel B), colchicine (panel C), vinblastine (panel D), and taxol (panel E) for NIH 3T3 cells transduced with LMDR1-G185V (closed circles), LMDR1-G185V-L56F (open circles), LMDR1-G185V-I190F/M197F (closed triangles), LMDR1-G185V-G763W (open triangles), or LMDR1-G185V-G844Q (closed squares).
Retroviral vectors carrying LXSN (negative control carrying the neomycin/G418 resistance gene), wild-type MDR1, MDR1-G185V, MDR1-I186N, or MDR1-G185V/I186N were individually transduced into NIH 3T3 cells. Populations transduced with MDR1 containing vectors were stained with the P-glycoprotein-specific monoclonal antibody MRK16, and then sorted to obtain cell populations expressing a similar level of P-glycoprotein.
NIH 3T3 cells were transduced with the LMDR1-G185V, LMDR1-G185V-EK2, LMDR1-G185V-EK3, or LMDR1-G185V-EK5 constructs, and the transduced cells were then sorted by FACS to generate pure populations of P-glycoprotein positive cells having similar levels of P-glycoprotein. Following sorting, the cell populations were analyzed for their drug resistance.
To investigate the mutants 8-A4, 5-C3, 2-B2, and 2-B1, having mutations in one of the transmembrane domains, MDR1-G185V cDNA was modified by site-directed mutagenesis to create the following constructs: LMDR1-G185V-L56F (leucine to phenylalanine mutation at residue 56), LMDR1-G185V-I190F/M197F (isoleucine to phenylalanine mutation at amino acid residue 190 and methionine to phenylalanine mutation at residue 197), LMDR1-G185V-G763W (glycine to tryptophan mutation at residue 763), and LMDR1-G185V-G844Q (glycine to glutamine mutation at residue 844). NIH 3T3 cells were transduced with either the LMDR1-G185V construct or one of the transmembrane mutant constructs, and the transduced cells were then sorted by FACS to generate pure populations of P-glycoprotein positive cells having similar levels of P-glycoprotein. Following sorting, the cell populations were analyzed for their drug resistance.

NIH 3T3 cells [2] = experiment: etoposide resistance / survival in etoposide of NIH 3T3 cells transduced with rescued MDR1-G185V mutants; type: cell-based; details: mutant fragments recloned into LMDR1-G185V, similar MDR1 expression
Procedure: Mutant MDR1-G185V cDNA isolated from eleven clonal lines was tested for the ability to confer elevated resistance to etoposide as compared to unmutagenized MDR1-G185V. Fragments of MDR1 cDNA containing mutations were first excised from the MDR1 cDNA using restriction endonucleases that recognize appropriate sites flanking the mutation, and then the fragments were recloned into the parental LMDR1-G185V vector. Naïve NIH 3T3 cells were individually transduced with the eleven LMDR1-G185V mutants, wild-type LMDR1-G185V, or LXSN, and then analyzed by FACS for MDR1 expression. […] The cell populations were then assayed for etoposide resistance.
An array selection strategy was employed to isolate additional MDR1 mutants conferring hyper-resistance to etoposide from the cells transduced with Mut II and selected in 10 μg/mL etoposide, as described in Example 1 (this selection scheme is shown in FIG. 1C and in FIG. 2). The 131 clonal lines from Example 1 were divided into four pools. MDR1 cDNA was recovered by PCR from each of the four pools, recloned back into LXSN, and used to transform bacterial cells to generate four MDR1 mutant libraries. These libraries were plated; individual bacterial colonies were picked and tested by array analysis. […]

G763W: MDR1-G185V construct with glycine to tryptophan mutation at residue 763
doxorubicin resistance relative to the LMDR1-G185V construct (NIH 3T3 cells [1]): moderate increases in doxorubicin resistance | taxol resistance relative to the LMDR1-G185V construct (NIH 3T3 cells [1]): no effect on taxol resistance | vinblastine resistance relative to the LMDR1-G185V construct (NIH 3T3 cells [1]): only a moderate increase in vinblastine resistance

I190F/M197F: MDR1-G185V construct with isoleucine to phenylalanine at residue 190 and methionine to phenylalanine at residue 197
doxorubicin resistance relative to the LMDR1-G185V construct (NIH 3T3 cells [1]): moderate increases in doxorubicin resistance | etoposide resistance relative to the LMDR1-G185V construct (NIH 3T3 cells [1]): the greatest resistance | taxol resistance relative to the LMDR1-G185V construct (NIH 3T3 cells [1]): significant increase in taxol resistance | vinblastine resistance relative to the LMDR1-G185V construct (NIH 3T3 cells [1]): increased vinblastine resistance

L56F: MDR1-G185V construct with leucine to phenylalanine mutation at residue 56
colchicine resistance relative to the LMDR1-G185V construct (NIH 3T3 cells [1]): increased colchicine resistance | doxorubicin resistance relative to the LMDR1-G185V construct (NIH 3T3 cells [1]): very strong resistance to doxorubicin | taxol resistance relative to the LMDR1-G185V construct (NIH 3T3 cells [1]): decreased taxol resistance | vinblastine resistance relative to the LMDR1-G185V construct (NIH 3T3 cells [1]): decreased vinblastine resistance

LMDR1-G185V-EK2: MDR1-G185V construct with glutamic acid to lysine substitutions at positions 634 and 636
colchicine resistance relative to the LMDR1-G185V construct (NIH 3T3 cells [1]): decrease colchicine resistance | doxorubicin resistance relative to the LMDR1-G185V construct (NIH 3T3 cells [1]): increase doxorubicin resistance | fold increase in doxorubicin resistance relative to the LMDR1-G185V construct (NIH 3T3 cells [1]): almost two-fold increase | fold increase in etoposide resistance relative to the LMDR1-G185V construct (NIH 3T3 cells [1]): 1.4 fold

LMDR1-G185V-EK3: MDR1-G185V construct with glutamic acid to lysine substitutions at positions 643, 647, and 652
colchicine resistance relative to the LMDR1-G185V construct (NIH 3T3 cells [1]): decrease colchicine resistance | doxorubicin resistance relative to the LMDR1-G185V construct (NIH 3T3 cells [1]): increase doxorubicin resistance | fold increase in doxorubicin resistance relative to the LMDR1-G185V construct (NIH 3T3 cells [1]): nearly a four-fold increase | fold increase in etoposide resistance relative to the LMDR1-G185V construct (NIH 3T3 cells [1]): 1.6 fold

LMDR1-G185V-EK5: MDR1-G185V construct with glutamic acid to lysine substitutions at positions 634, 636, 643, 647 and 652
colchicine resistance relative to the LMDR1-G185V construct (NIH 3T3 cells [1]): the greatest decrease in colchicine resistance | etoposide resistance relative to the LMDR1-G185V construct (NIH 3T3 cells [1]): the effect of the double and triple lysine mutants was not additive

MDR1-G185V/I186N: mutant human P-glycoprotein having both G185V and I186N substitutions
colchicine resistance relative to cells transduced with wild-type MDR1 (NIH 3T3 cells [1]): indistinguishable from that obtained for cells transduced with the MDR1-G185V construct | doxorubicin resistance relative to cells transduced with wild-type MDR1 (NIH 3T3 cells [1]): an even higher level of doxorubicin resistance | etoposide resistance relative to cells transduced with wild-type MDR1 (NIH 3T3 cells [1]): higher level of etoposide resistance than cells transduced with either the MDR1-G185V or MDR1-I186N constructs

MDR1-G185V: human P-glycoprotein having a glycine to valine substitution at position 185 (SEQ ID NO: 3) [reference compound]
colchicine resistance relative to cells transduced with wild-type MDR1 (NIH 3T3 cells [1]): an even higher level of colchicine resistance | doxorubicin resistance relative to cells transduced with wild-type MDR1 (NIH 3T3 cells [1]): doxorubicin resistance was enhanced | etoposide resistance relative to cells transduced with wild-type MDR1 (NIH 3T3 cells [1]): increase etoposide resistance | taxol resistance relative to cells transduced with wild-type MDR1 (NIH 3T3 cells [1]): decrease resistance levels to both of these drugs | vinblastine resistance relative to cells transduced with wild-type MDR1 (NIH 3T3 cells [1]): decrease resistance levels to both of these drugs

MDR1-I186N: mutant human P-glycoprotein having an asparagine substitution at position 186 (SEQ ID NO: 4)
etoposide resistance as compared to unmutagenized MDR1-G185V (NIH 3T3 cells [2]): increased resistance to etoposide | colchicine resistance relative to cells transduced with wild-type MDR1 (NIH 3T3 cells [1]): increase colchicine resistance | doxorubicin resistance relative to cells transduced with wild-type MDR1 (NIH 3T3 cells [1]): doxorubicin resistance was enhanced | etoposide resistance relative to cells transduced with wild-type MDR1 (NIH 3T3 cells [1]): increase etoposide resistance to a similar degree as the G185V substitution | taxol resistance relative to cells transduced with wild-type MDR1 (NIH 3T3 cells [1]): increase resistance to both of these drugs | vinblastine resistance relative to cells transduced with wild-type MDR1 (NIH 3T3 cells [1]): increase resistance to both of these drugs
